Results on two molecules are retold here after paper PMC2063130, “Reversal of P-glycoprotein-mediated multidrug resistance by XR9051, a novel diketopiperazine derivative” (British Journal of Cancer, 1998).

The target in test [1] is T1, P-glycoprotein (Cricetulus griseus, UniProt P21448).
T1 construct: gene ABCB1; CHrB30 plasma membranes
Description: displacement of [3H]vinblastine equilibrium binding, rapid filtration. Particulars: read-out: EC50 (the source's name).

Test [2] concerns the target T1, P-glycoprotein. Description: radioligand filtration binding; no specific binding in parental AuxB1 membranes (Kd […] is quoted from earlier work).

T1 sequence (P21448 whole entry): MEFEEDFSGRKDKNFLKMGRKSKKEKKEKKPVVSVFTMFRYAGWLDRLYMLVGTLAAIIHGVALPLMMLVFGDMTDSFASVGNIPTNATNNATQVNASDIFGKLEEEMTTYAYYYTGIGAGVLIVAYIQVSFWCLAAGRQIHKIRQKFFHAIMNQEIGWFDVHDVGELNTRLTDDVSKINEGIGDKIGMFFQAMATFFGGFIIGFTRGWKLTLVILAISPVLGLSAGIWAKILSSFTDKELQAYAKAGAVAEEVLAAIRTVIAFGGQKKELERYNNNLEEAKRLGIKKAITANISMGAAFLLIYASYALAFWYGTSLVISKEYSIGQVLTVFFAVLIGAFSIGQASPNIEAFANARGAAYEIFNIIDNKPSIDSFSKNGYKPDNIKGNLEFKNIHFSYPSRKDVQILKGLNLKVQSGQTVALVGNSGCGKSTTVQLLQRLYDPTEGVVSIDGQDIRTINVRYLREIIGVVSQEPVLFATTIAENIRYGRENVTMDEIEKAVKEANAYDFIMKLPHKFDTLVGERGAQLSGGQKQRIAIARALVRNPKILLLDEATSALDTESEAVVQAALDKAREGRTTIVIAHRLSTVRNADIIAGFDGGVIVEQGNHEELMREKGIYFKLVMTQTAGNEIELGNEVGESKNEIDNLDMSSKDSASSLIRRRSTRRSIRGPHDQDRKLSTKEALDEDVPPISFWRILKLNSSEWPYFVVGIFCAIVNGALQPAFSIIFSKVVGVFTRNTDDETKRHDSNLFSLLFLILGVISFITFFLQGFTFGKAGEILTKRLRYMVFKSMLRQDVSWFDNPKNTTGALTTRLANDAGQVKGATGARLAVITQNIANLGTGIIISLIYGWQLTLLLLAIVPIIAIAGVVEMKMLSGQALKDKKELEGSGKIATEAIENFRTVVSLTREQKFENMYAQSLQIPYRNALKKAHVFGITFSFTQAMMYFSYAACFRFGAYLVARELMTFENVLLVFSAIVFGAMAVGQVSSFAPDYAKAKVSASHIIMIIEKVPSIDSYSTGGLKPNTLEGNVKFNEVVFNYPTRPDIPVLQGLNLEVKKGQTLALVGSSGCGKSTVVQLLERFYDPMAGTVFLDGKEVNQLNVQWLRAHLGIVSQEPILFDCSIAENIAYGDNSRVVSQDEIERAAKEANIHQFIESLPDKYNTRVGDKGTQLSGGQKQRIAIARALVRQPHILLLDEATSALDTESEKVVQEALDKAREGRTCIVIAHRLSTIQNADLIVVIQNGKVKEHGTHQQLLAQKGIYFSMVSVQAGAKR

`COc1cc2c(cc1OC)CN(CCc1ccc(NC(=O)c3cccc(/C=c4\[nH]c(=O)/c(=C/c5ccccc5)n(C)c4=O)c3)cc1)CC2` [XR9051, N-(4-(2-(6,7-Dimethoxy-1,2,3,4-tetrahydro-2-isoquinolyl)ethyl)phenyl)-3-((3Z,6Z)-6-benzylidene-1-methyl-2,5-dioxo-3-piperazinylidene) methylbenzamide]: the IC50 at P-glycoprotein [1] was 1.4 nM.
As for `CC[C@]1(O)C[C@@H]2CN(CCc3c([nH]c4ccccc34)[C@@](C(=O)OC)(c3cc4c(cc3OC)N(C)[C@H]3[C@@](O)(C(=O)OC)[C@H](OC(C)=O)[C@]5(CC)C=CCN6CC[C@]43[C@@H]65)C2)C1` [vinblastine], at P-glycoprotein [2], the “radioligand filtration binding; no specific binding in parental AuxB1 membranes” value is on record as “A rapid filtration assay was used to determine the equilibrium”.
